Data published in US7129266B2, “Antibiotic Cyan426-A” (Wyeth Holdings Corporation, priority 2002, dated 2006).
In brackets after ≈: the same amount, converted by molar mass. Read-outs that look alike come from different tables or passages of the source.

How the values were obtained:
Assay in all cases: In vitro antibacterial test, MIC by broth dilution
Format in all cases: cell-based
[1] = test system: Staphylococcus haemolyticus; conditions: Staphylococcus haemolyticus GC 4547, resistant to methicillin; 18 hours at 35° C.
Experimental: (§1) The minimum inhibitory concentration (MIC), the lowest concentration of the antibiotic which inhibits growth of the test organism, is determined by the broth dilution method using Muller-Hinton II […] (Baltimore Biological Laboratories) following the recommendations of the National Committee for Clinical Laboratory Standards [Methods for dilution antimicrobial susceptibility tests for bacteria that grow aerobically. Approved standard M7-A2. National Committee for Clinical Laboratory Standards, Villanova, Pa.].
(§2) An inoculum level of 5×10^5 CFU/ml, and a range of antibiotic concentrations (64–0.06 μg/ml) is used. The MIC is determined after the microtiter plates are incubated for 18 hours at 35° C. in an ambient air incubator. The test organisms comprise a spectrum of Gram-positive bacteria Staphylococcus sp., Streptococcus pneumoniae, Enterococcus sp., Gram-negative bacteria Escherichia coli, and the yeast Candida albicans. These organisms include recent clinical isolates that are resistant to piperacillin or vancomycin.

Escherichia coli = conditions: 18 hours at 35° C.
Experimental: as §1, §2

Enterococcus faecium = conditions: 18 h
Experimental: as §1, §2

Candida albicans = Candida albicans GC 3066; 18 hours at 35° C.
Experimental: as §1, §2

Streptococcus pneumoniae = conditions: 18 h
Experimental: as §1, §2

Enterococcus faecalis = conditions: 18 hours at 35° C.
Experimental: as §1, §2

Staphylococcus aureus = conditions: 18 h
Experimental: as §1, §2

Question: How did the MIC [1] turn out when `C=CC1C=C(C)C2C3C(Oc4ccc(cc4)CC4(O)C=C(C(=O)N4)C(=O)C13)C1C(C)CC(C)CC21C` (stereo not shown) [Cyan426-A] was run?
Answer: The MIC was 0.25 µg/mL (≈ 0.513 µM).

Question: What about the MIC (Escherichia coli; Escherichia coli GC 4559, read-out: MIC) of the same compound?
Answer: The MIC was 128 µg/mL (≈ 262 µM).

Question: And the MIC (Escherichia coli; Escherichia coli, 18 h, Escherichia coli GC 4560 (imp))?
Answer: Its MIC is 2 µg/mL (≈ 4.1 µM).

Question: And the MIC (Enterococcus faecium; Enterococcus faecium GC 2243, marked * (resistant to methicillin), 18 hours at 35° C.)?
Answer: The MIC was 1 µg/mL (≈ 2.05 µM).

Question: And the MIC (Enterococcus faecium; Enterococcus faecium GC 4556, 18 hours at 35° C.)?
Answer: Its MIC is 1 µg/mL (≈ 2.05 µM).

Question: What about the MIC (Enterococcus faecium; Enterococcus faecium GC 4558, marked * (resistant to methicillin), 18 hours at 35° C.) of the same compound?
Answer: The MIC was 0.5 µg/mL (≈ 1.03 µM).

Question: What about the MIC (Candida albicans) of the same compound?
Answer: Its MIC is 8 µg/mL (≈ 16.4 µM).

Question: What about the MIC (Streptococcus pneumoniae; Streptococcus pneumoniae GC 1894, 18 hours at 35° C.) of the same compound?
Answer: The MIC was 64 µg/mL (≈ 131 µM).

Question: What about the MIC (Streptococcus pneumoniae; Streptococcus pneumoniae GC 6242, 18 hours at 35° C.) of the same compound?
Answer: The MIC was 16 µg/mL (≈ 32.8 µM).

Question: What about the MIC (Enterococcus faecalis; Enterococcus faecalis GC 2242, resistant to vancomycin) of the same compound?
Answer: The MIC was 0.50 µg/mL (≈ 1.03 µM).

Question: What about the MIC (Enterococcus faecalis; Enterococcus faecalis GC 4555) of the same compound?
Answer: The MIC was 0.50 µg/mL (≈ 1.03 µM).

Question: What about the MIC (Enterococcus faecalis; Enterococcus faecalis GC 6189, read-out: MIC) of the same compound?
Answer: Its MIC is 0.5 µg/mL (≈ 1.03 µM).

Question: And the MIC (Staphylococcus aureus; Staphylococcus aureus GC 1131, resistant to methicillin, 18 hours at 35° C.)?
Answer: Its MIC is 2 µg/mL (≈ 4.1 µM).

Question: What about the MIC (Staphylococcus aureus; Staphylococcus aureus GC 2216, 18 hours at 35° C.) of the same compound?
Answer: Its MIC is 1 µg/mL (≈ 2.05 µM).

Question: What about the MIC (Staphylococcus aureus; Staphylococcus aureus GC 4541, resistant to methicillin, 18 hours at 35° C.) of the same compound?
Answer: Its MIC is 0.25 µg/mL (≈ 0.513 µM).

Question: And the MIC (Staphylococcus aureus; Staphylococcus aureus GC 4543, 18 hours at 35° C.)?
Answer: Its MIC is 1 µg/mL (≈ 2.05 µM).
